Results reported in the kinase profiling compilation of Christmann-Franck et al. (2016).

Experiments:
Test in all cases: KINOMEscan competition binding
Conditions in all cases: compound 10.0 µM
MUSK (human) = MUSK (human) (UniProt O15146)
PRKCQ (human) = PRKCQ (human) (UniProt Q04759)
PDGFRB (human) = PDGFRB (human) (UniProt P09619)
RPS6KA1 KD1 (human) = RPS6KA1 KD1 (human) (UniProt Q15418)
FYN (human) = FYN (human) (UniProt P06241)
SYK (human) = SYK (human) (UniProt P43405)
WEE2 (human) = WEE2 (human) (UniProt P0C1S8)
CAMK2A (human) = CAMK2A (human) (UniProt Q9UQM7)
STK38L (human) = STK38L (human) (UniProt Q9Y2H1)
ITK (human) = ITK (human) (UniProt Q08881)
MARK1 (human) = MARK1 (human) (UniProt Q9P0L2)
LTK (human) = LTK (human) (UniProt P29376)
BRSK1 (human) = BRSK1 (human) (UniProt Q8TDC3)
MAP4K1 (human) = MAP4K1 (human) (UniProt Q92918)
TEC (human) = TEC (human) (UniProt P42680)
MLTK (human) = MLTK (human) (UniProt Q9NYL2)
AURKB (human) = AURKB (human) (UniProt Q96GD4)
DAPK1 (human) = DAPK1 (human) (UniProt P53355)
CaMK1 (human) = CaMK1 (human) (UniProt Q14012)
PAK3 (human) = PAK3 (human) (UniProt O75914)
DYRK1B (human) = DYRK1B (human) (UniProt Q9Y463)
AKT2 (human) = AKT2 (human) (UniProt P31751)
EIF2AK2 (human) = EIF2AK2 (human) (UniProt P19525)
MAP3K12 (human) = MAP3K12 (human) (UniProt Q12852)
HIPK1 (human) = HIPK1 (human) (UniProt Q86Z02)
MELK (human) = MELK (human) (UniProt Q14680)
MAPK10 (human) = MAPK10 (human) (UniProt P53779)
PAK4 (human) = PAK4 (human) (UniProt O96013)
NEK9 (human) = NEK9 (human) (UniProt Q8TD19)
MAPK11 (human) = MAPK11 (human) (UniProt Q15759)
[1] = target: TYK2 JH2 pseudokinase (human) (UniProt P29597)
RPS6KA5 KD2 (human) = RPS6KA5 KD2 (human) (UniProt O75582)
EPHA4 (human) = EPHA4 (human) (UniProt P54764)
MAPK1 (human) = MAPK1 (human) (UniProt P28482)
MYLK4 (human) = MYLK4 (human) (UniProt Q86YV6)
CSNK1D (human) = CSNK1D (human) (UniProt P48730)
CHUK (human) = CHUK (human) (UniProt O15111)
ERBB2 (human) = ERBB2 (human) (UniProt P04626)
ACVR2B (human) = ACVR2B (human) (UniProt Q13705)
CLK1 (human) = CLK1 (human) (UniProt P49759)

Sequence of CAMK2A (human) (Q9UQM7 whole entry, looked up): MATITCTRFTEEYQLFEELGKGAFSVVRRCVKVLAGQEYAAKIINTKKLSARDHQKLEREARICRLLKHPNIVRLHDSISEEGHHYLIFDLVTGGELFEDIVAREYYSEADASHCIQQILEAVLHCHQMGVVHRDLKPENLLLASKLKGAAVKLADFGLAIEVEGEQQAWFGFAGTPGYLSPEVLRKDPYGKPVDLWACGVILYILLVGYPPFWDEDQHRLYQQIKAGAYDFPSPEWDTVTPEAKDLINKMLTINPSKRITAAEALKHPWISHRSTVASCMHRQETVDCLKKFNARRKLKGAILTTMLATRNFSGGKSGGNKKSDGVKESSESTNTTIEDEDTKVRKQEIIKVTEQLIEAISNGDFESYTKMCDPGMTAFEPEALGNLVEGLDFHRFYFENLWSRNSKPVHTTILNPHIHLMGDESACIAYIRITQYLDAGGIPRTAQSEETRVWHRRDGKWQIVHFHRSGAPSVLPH
Sequence of MAPK11 (human) (Q15759 whole entry, looked up): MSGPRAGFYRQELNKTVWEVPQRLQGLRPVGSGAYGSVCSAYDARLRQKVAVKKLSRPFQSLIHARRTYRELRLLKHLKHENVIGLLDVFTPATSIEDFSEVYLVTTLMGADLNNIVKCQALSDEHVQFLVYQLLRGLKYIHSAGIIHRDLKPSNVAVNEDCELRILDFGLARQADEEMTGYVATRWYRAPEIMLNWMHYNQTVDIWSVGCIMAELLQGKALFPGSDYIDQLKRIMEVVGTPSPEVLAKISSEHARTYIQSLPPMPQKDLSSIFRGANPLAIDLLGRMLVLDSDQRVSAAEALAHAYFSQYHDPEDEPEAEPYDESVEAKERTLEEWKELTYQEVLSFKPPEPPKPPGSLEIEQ
Sequence of MAP3K12 (human) (Q12852 whole entry, looked up): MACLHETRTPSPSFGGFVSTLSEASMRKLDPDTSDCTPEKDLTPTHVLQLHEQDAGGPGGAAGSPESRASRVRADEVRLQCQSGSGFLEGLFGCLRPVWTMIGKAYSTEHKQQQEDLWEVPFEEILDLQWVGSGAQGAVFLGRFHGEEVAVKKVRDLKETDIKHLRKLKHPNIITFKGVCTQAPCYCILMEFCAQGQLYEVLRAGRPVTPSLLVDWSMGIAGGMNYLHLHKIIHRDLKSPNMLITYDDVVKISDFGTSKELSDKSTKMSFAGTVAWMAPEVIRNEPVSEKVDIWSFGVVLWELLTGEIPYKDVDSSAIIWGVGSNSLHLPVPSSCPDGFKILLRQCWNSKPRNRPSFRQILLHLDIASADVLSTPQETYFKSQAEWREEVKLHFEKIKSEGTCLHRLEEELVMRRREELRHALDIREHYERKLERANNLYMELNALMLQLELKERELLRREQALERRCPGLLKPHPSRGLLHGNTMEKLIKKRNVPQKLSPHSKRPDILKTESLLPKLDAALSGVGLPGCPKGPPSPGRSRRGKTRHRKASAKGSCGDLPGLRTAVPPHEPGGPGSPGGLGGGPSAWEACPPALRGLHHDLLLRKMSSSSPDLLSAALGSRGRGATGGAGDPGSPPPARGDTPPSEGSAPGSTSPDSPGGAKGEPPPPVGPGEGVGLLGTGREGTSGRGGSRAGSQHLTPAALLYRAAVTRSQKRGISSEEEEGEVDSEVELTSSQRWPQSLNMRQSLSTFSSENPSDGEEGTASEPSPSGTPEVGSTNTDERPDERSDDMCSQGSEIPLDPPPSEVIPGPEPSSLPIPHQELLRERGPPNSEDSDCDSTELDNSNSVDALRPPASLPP
Sequence of MAPK1 (human) (P28482 whole entry, looked up): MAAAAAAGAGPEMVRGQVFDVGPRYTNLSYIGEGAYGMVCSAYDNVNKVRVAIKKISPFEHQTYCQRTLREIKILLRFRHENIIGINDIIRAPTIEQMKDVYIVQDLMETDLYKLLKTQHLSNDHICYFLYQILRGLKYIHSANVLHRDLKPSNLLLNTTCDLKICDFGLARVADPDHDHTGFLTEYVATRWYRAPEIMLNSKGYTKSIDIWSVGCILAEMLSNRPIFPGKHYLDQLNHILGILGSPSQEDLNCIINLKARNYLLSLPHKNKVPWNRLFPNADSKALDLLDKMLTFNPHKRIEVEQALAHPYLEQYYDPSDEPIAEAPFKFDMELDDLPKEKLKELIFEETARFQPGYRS
Sequence of PRKCQ (human) (Q04759 whole entry, looked up): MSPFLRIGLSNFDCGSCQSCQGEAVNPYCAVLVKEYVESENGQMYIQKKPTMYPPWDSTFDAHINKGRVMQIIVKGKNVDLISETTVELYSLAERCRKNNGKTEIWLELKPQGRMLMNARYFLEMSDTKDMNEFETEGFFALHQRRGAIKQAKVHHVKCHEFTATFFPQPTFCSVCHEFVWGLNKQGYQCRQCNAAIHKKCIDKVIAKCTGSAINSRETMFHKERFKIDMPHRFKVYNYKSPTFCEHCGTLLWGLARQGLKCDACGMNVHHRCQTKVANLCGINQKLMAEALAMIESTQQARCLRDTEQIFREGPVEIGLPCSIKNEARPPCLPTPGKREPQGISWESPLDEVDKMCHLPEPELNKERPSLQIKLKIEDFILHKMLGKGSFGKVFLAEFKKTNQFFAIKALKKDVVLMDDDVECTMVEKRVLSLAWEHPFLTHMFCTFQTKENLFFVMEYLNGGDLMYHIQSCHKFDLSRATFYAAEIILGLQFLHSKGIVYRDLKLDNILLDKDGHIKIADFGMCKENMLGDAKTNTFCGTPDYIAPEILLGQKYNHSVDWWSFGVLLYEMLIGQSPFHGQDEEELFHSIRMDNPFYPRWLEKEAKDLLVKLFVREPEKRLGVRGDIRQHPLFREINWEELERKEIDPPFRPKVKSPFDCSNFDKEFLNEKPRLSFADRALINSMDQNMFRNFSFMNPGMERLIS
Sequence of ACVR2B (human) (Q13705 whole entry, looked up): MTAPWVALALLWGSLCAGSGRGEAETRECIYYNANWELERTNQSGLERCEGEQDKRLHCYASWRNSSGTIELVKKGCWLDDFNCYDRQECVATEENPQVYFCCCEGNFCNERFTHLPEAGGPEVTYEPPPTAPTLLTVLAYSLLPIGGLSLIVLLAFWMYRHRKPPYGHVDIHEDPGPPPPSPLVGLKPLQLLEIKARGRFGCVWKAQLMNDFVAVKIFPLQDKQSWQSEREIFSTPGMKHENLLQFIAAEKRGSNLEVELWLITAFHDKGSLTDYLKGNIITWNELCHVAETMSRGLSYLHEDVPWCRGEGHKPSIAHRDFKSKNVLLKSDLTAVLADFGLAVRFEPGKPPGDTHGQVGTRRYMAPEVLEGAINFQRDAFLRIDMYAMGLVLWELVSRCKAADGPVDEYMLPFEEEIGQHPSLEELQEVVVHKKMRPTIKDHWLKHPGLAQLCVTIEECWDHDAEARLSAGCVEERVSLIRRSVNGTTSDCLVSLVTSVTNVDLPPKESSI
Sequence of AURKB (human) (Q96GD4 whole entry, looked up): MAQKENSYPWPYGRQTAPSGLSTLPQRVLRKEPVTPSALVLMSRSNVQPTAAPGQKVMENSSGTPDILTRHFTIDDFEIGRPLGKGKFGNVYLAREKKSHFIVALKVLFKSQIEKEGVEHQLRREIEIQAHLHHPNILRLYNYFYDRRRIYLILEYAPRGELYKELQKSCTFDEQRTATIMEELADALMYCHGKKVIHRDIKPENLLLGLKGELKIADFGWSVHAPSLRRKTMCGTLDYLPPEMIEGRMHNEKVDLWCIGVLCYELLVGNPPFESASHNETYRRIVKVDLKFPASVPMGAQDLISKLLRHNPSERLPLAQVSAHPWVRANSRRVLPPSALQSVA
Sequence of MLTK (human) (Q9NYL2 whole entry, looked up): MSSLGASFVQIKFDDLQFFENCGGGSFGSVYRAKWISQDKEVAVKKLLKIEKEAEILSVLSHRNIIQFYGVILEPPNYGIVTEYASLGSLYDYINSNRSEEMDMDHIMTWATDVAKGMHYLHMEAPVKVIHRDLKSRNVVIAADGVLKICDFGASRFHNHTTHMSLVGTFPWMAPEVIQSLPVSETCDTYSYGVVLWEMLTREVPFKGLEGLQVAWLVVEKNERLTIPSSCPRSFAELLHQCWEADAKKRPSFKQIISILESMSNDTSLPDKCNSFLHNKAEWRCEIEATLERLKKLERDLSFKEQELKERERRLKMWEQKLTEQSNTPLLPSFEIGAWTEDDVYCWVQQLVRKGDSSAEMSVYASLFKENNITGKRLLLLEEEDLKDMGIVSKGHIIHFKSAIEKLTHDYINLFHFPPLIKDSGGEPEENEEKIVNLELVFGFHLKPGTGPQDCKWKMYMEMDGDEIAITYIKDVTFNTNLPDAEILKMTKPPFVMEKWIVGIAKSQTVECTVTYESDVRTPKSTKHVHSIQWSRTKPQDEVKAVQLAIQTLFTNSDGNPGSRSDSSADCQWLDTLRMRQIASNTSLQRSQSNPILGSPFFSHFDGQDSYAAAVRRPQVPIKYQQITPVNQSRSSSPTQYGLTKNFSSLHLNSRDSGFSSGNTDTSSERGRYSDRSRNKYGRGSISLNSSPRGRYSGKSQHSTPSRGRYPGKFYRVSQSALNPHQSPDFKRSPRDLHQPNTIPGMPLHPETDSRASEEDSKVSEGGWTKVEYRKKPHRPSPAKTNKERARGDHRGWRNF
Sequence of MYLK4 (human) (Q86YV6 whole entry, looked up): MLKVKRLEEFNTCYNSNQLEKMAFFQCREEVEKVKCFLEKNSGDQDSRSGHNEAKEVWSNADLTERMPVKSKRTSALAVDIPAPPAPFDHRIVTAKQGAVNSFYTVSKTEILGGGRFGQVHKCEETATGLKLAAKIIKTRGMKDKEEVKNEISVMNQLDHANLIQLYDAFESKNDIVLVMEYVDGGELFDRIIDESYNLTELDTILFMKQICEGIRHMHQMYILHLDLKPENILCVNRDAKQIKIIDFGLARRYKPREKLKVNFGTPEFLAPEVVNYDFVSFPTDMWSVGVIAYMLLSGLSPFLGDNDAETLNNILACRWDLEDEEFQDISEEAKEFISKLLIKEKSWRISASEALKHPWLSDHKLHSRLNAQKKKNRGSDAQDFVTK

## CCC(=O)N1CCN(c2ccc(-n3c(=O)ccc4cnc5ccc(-c6cnc7ccccc7c6)cc5c43)cc2C(F)(F)F)CC1
MUSK (human)
  kinase still bound, per cent of control: 100%
PRKCQ (human)
  kinase still bound, per cent of control: 91%
PDGFRB (human)
  kinase still bound, per cent of control: 24%
RPS6KA1 KD1 (human)
  kinase still bound, per cent of control: 68%
FYN (human)
  kinase still bound, per cent of control: 49%
SYK (human)
  kinase still bound, per cent of control: 78%
WEE2 (human)
  kinase still bound, per cent of control: 100%
CAMK2A (human)
  kinase still bound, per cent of control: 93%
STK38L (human)
  kinase still bound, per cent of control: 94%
ITK (human)
  kinase still bound, per cent of control: 100%
MARK1 (human)
  kinase still bound, per cent of control: 100%
LTK (human)
  kinase still bound, per cent of control: 77%
BRSK1 (human)
  kinase still bound, per cent of control: 78%
MAP4K1 (human)
  kinase still bound, per cent of control: 30%
TEC (human)
  kinase still bound, per cent of control: 99%
MLTK (human)
  kinase still bound, per cent of control: 22%
AURKB (human)
  kinase still bound, per cent of control: 82%
DAPK1 (human)
  kinase still bound, per cent of control: 96%
CaMK1 (human)
  kinase still bound, per cent of control: 50%
PAK3 (human)
  kinase still bound, per cent of control: 100%
DYRK1B (human)
  kinase still bound, per cent of control: 87%
AKT2 (human)
  kinase still bound, per cent of control: 100%
EIF2AK2 (human)
  kinase still bound, per cent of control: 88%
MAP3K12 (human)
  kinase still bound, per cent of control: 100%
HIPK1 (human)
  kinase still bound, per cent of control: 63%
MELK (human)
  kinase still bound, per cent of control: 50%
MAPK10 (human)
  kinase still bound, per cent of control: 31%
PAK4 (human)
  kinase still bound, per cent of control: 100%
NEK9 (human)
  kinase still bound, per cent of control: 100%
MAPK11 (human)
  kinase still bound, per cent of control: 53%
[1]
  kinase still bound, per cent of control: 55%
RPS6KA5 KD2 (human)
  kinase still bound, per cent of control: 100%
EPHA4 (human)
  kinase still bound, per cent of control: 90%
MAPK1 (human)
  kinase still bound, per cent of control: 100%
MYLK4 (human)
  kinase still bound, per cent of control: 83%
CSNK1D (human)
  kinase still bound, per cent of control: 4.3%
CHUK (human)
  kinase still bound, per cent of control: 41%
ERBB2 (human)
  kinase still bound, per cent of control: 91%
ACVR2B (human)
  kinase still bound, per cent of control: 42%
CLK1 (human)
  kinase still bound, per cent of control: 49%

## Cc1ccc2nc(NCCN)c3ncc(C)n3c2c1
MUSK (human)
  kinase still bound, per cent of control: 100%
PRKCQ (human)
  kinase still bound, per cent of control: 99%
PDGFRB (human)
  kinase still bound, per cent of control: 57%
RPS6KA1 KD1 (human)
  kinase still bound, per cent of control: 79%
FYN (human)
  kinase still bound, per cent of control: 100%
SYK (human)
  kinase still bound, per cent of control: 100%
WEE2 (human)
  kinase still bound, per cent of control: 100%
CAMK2A (human)
  kinase still bound, per cent of control: 78%
STK38L (human)
  kinase still bound, per cent of control: 100%
ITK (human)
  kinase still bound, per cent of control: 100%
MARK1 (human)
  kinase still bound, per cent of control: 100%
LTK (human)
  kinase still bound, per cent of control: 95%
BRSK1 (human)
  kinase still bound, per cent of control: 90%
MAP4K1 (human)
  kinase still bound, per cent of control: 81%
TEC (human)
  kinase still bound, per cent of control: 100%
MLTK (human)
  kinase still bound, per cent of control: 96%
AURKB (human)
  kinase still bound, per cent of control: 67%
DAPK1 (human)
  kinase still bound, per cent of control: 47%
CaMK1 (human)
  kinase still bound, per cent of control: 98%
PAK3 (human)
  kinase still bound, per cent of control: 62%
DYRK1B (human)
  kinase still bound, per cent of control: 85%
AKT2 (human)
  kinase still bound, per cent of control: 100%
EIF2AK2 (human)
  kinase still bound, per cent of control: 100%
MAP3K12 (human)
  kinase still bound, per cent of control: 84%
HIPK1 (human)
  kinase still bound, per cent of control: 21%
MELK (human)
  kinase still bound, per cent of control: 96%
MAPK10 (human)
  kinase still bound, per cent of control: 100%
PAK4 (human)
  kinase still bound, per cent of control: 100%
NEK9 (human)
  kinase still bound, per cent of control: 100%
MAPK11 (human)
  kinase still bound, per cent of control: 87%
[1]
  kinase still bound, per cent of control: 15%
RPS6KA5 KD2 (human)
  kinase still bound, per cent of control: 85%
EPHA4 (human)
  kinase still bound, per cent of control: 100%
MAPK1 (human)
  kinase still bound, per cent of control: 97%
MYLK4 (human)
  kinase still bound, per cent of control: 8.8%
CSNK1D (human)
  kinase still bound, per cent of control: 45%
CHUK (human)
  kinase still bound, per cent of control: 86%
ERBB2 (human)
  kinase still bound, per cent of control: 100%
ACVR2B (human)
  kinase still bound, per cent of control: 100%
CLK1 (human)
  kinase still bound, per cent of control: 72%
